Our source for the EC50 values is patent US11078216B2, “Bisaryl amides as NRF2 activators” (GLAXOSMITHKLINE INTELLECTUAL PROPERTY DEVELOPMENT LIMITED, priority 2016, dated 2021).

This test relates to NRF2 (NQO1 activity as marker for NRF2 activation), BEAS-2B cells. Description: BEAS-2B NQO1 MTT Assay. Type of test: cell-based. Conditions: Homo sapiens, EC50 of NQO1 specific activity induction, 48 hours incubation, read-out: EC50. The method, boiled down: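 BEAS-2B cells were exposed to compound for 48 h at 37° C, 5% CO2, then lysed. NQO1 activity was measured kinetically by MTT reduction at 570 nm over 30 minutes; EC50 came from 3-parameter fit of Delta OD/min versus log concentration.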

SMILES strings stand for the structures.

The EC50 is the concentration at which the effect is half-maximal. As for `CC[C@@H]1CN(Cc2cc([C@@H](c3ccc4c(nnn4CC)c3C)C(C)(C)C(=O)NCCC(=O)O)ccc2C)S(=O)(=O)c2ccccc2O1` [Example 201, 3-((S)-3-(3-(((R)-4-ethyl-1,1-dioxido-3,4-dihydro-2H-benzo[b][1,4,5]oxathiazepin-2-yl)methyl)-4-methylphenyl)-3-(1-ethyl-4-methyl-1H-benzo[d][1,2,3]triazol-5-yl)-2,2-dimethylpropanamido)propanoic acid], the half-maximal effective concentration (EC50) was in the range of 100 to 1000 nM. For the compound `CC[C@@H]1CN(Cc2cc([C@H](CC(=O)NC(C)(C)C(N)=O)c3ccc4c(nnn4CC)c3C)ccc2C)S(=O)(=O)c2cccnc2O1` [Example 23, (S)-N-(1-Amino-2-methyl-1-oxopropan-2-yl)-3-(3-(((R)-4-ethyl-1,1-dioxido-3,4-dihydro-2H-pyrido[2,3-b][1,4,5]oxathiazepin-2-yl)methyl)-4-methylphenyl)-3-(1-ethyl-4-methyl-1H-benzo[d][1,2,3]triazol-5-yl)propanamide], the EC50 lay within 1000 to 10000 nM.

Consider `CC[C@@H]1CN(Cc2cc([C@H](CC(=O)NCCCO)c3ccc4c(nnn4CC)c3C)ccc2C)S(=O)(=O)c2cccnc2O1` [Example 33, (S)-3-(3-(((R)-4-Ethyl-1,1-dioxido-3,4-dihydro-2H-pyrido[2,3-b][1,4,5]oxathiazepin-2-yl)methyl)-4-methylphenyl)-3-(1-ethyl-4-methyl-1H-benzo[d][1,2,3]triazol-5-yl)-N-(3-hydroxypropyl)-propanamide], for which the EC50 was in the range of 1000 to 10000 nM. On to `CC[C@@H]1CN(Cc2cc([C@@H](CCc3cn(C4CCC4)nn3)C(C)(C)C(N)=O)ccc2Cl)S(=O)(=O)c2ccccc2O1` [Example 185, (R)-3-(4-chloro-3-(((R)-4-ethyl-1,1-dioxido-3,4-dihydro-2H-benzo[b][1,4,5]oxathiazepin-2-yl)methyl)phenyl)-5-(1-cyclobutyl-1H-1,2,3-triazol-4-yl)-2,2-dimethylpentanamide], for which the concentration giving a half-maximal response (EC50) fell in the range of 100 to 1000 nM. As to `CC[C@@H]1CN(Cc2cc([C@@H](c3ccc4c(nnn4CC)c3C)C(C)(C)NC(=O)c3cccn(C)c3=O)ccc2C)S(=O)(=O)c2ccccc2O1` [Example 140, N-((S)-1-(3-(((R)-4-Ethyl-1,1-dioxido-3,4-dihydro-2H-benzo[b][1,4,5]oxathiazepin-2-yl)methyl)-4-methylphenyl)-1-(1-ethyl-4-methyl-1H-benzo[d][1,2,3]triazol-5-yl)-2-methylpropan-2-yl)-1-methyl-2-oxo-1,2-dihydropyridine-3-carboxamide], the half-maximal effective concentration (EC50) fell in the range of 10 to 100 nM. For `CC[C@@H]1CN(Cc2cc([C@@H](c3ccc4c(nnn4CC)c3C)C(C)(C)C(=O)NCC(N)=O)ccc2C)S(=O)(=O)c2ccccc2O1` [Example 208, (S)-N-(2-amino-2-oxoethyl)-3-(3-(((R)-4-ethyl-1,1-dioxido-3,4-dihydro-2H-benzo[b][1,4,5]oxathiazepin-2-yl)methyl)-4-methylphenyl)-3-(1-ethyl-4-methyl-1H-benzo[d][1,2,3]triazol-5-yl)-2,2-dimethylpropanamide], the EC50 was in the range of 10 to 100 nM. As for `CC[C@@H]1CN(Cc2cc([C@H](CC(=O)Nc3ccnnc3)c3ccc4c(nnn4CC)c3C)ccc2C)S(=O)(=O)c2cccnc2O1` [Example 107, (S)-3-(3-(((R)-4-Ethyl-1,1-dioxido-3,4-dihydro-2H-pyrido[2,3-b][1,4,5]oxathiazepin-2-yl)methyl)-4-methylphenyl)-3-(1-ethyl-4-methyl-1H-benzo[d][1,2,3]triazol-5-yl)-N-(pyridazin-4-yl)propanamide], the figure is 100 to 1000 nM. As for `CC[C@@H]1CN(Cc2cc([C@@H](c3ccc4c(nnn4CC)c3C)C(C)(C)NC(=O)C3CCCOC3)ccc2C)S(=O)(=O)c2ccccc2O1` (stereo partly drawn) [Example 135, N-((S)-1-(3-(((R)-4-Ethyl-1,1-dioxido-3,4-dihydro-2H-benzo[b][1,4,5]oxathiazepin-2-yl)methyl)-4-methylphenyl)-1-(1-ethyl-4-methyl-1H-benzo[d][1,2,3]triazol-5-yl)-2-methylpropan-2-yl)tetrahydro-2H-pyran-3-carboxamide], the 50% effective concentration (EC50) is 10 to 100 nM. Consider `CC[C@@H]1CN(Cc2cc([C@@H](c3ccc4c(nnn4CC)c3C)[C@@H](C)C(=O)N3C(=O)OC[C@H]3Cc3ccccc3)ccc2C)S(=O)(=O)c2cccnc2O1` [Example 20, (R)-4-Benzyl-3-((2R,3S)-3-(3-(((R)-4-ethyl-1,1-dioxido-3,4-dihydro-2H-pyrido[2,3-b][1,4,5]oxathiazepin-2-yl)methyl)-4-methylphenyl)-3-(1-ethyl-4-methyl-1H-benzo[d][1,2,3]triazol-5-yl)-2-methylpropanoyl)oxazolidin-2-one], for which the EC50 lay within 100 to 1000 nM.

With `CC[C@@H]1CN(Cc2cc([C@@H](c3ccc4c(nnn4CC)c3C)C(C)(C)NC(=O)c3cnc(OC)nc3)ccc2C)S(=O)(=O)c2ccccc2O1` [Example 145, N-((S)-1-(3-(((R)-4-Ethyl-1,1-dioxido-3,4-dihydro-2H-benzo[b][1,4,5]oxathiazepin-2-yl)methyl)-4-methylphenyl)-1-(1-ethyl-4-methyl-1H-benzo[d][1,2,3]triazol-5-yl)-2-methylpropan-2-yl)-2-methoxypyrimidine-5-carboxamide], the 50% effective concentration (EC50) fell in the range of 1 to 10 nM. Consider `CC[C@@H]1CN(Cc2cc([C@H](CC(=O)Nc3cccnc3)c3cc(OC)c4c(nnn4CC)c3C)ccc2C)S(=O)(=O)c2cccnc2O1` [Example 65, (S)-3-(3-(((R)-4-Ethyl-1,1-dioxido-3,4-dihydro-2H-pyrido[2,3-b][1,4,5]oxathiazepin-2-yl)methyl)-4-methylphenyl)-3-(1-ethyl-7-methoxy-4-methyl-1H-benzo[d][1,2,3]triazol-5-yl)-N-(pyridin-3-yl)propanamide], for which the EC50 was in the range of 10 to 100 nM. As to `CC[C@@H]1CN(Cc2cc([C@@H](c3ccc4c(nnn4CC)c3C)C(C)(C)NC(=O)c3cccnc3)ccc2C)S(=O)(=O)c2cccnc2O1` [Example 166, N—((S)-1-(3-(((R)-4-Ethyl-1,1-dioxido-3,4-dihydro-2H-pyrido[2,3-b][1,4,5]oxathiazepin-2-yl)methyl)-4-methylphenyl)-1-(1-ethyl-4-methyl-1H-benzo[d][1,2,3]triazol-5-yl)-2-methylpropan-2-yl)nicotinamide], the EC50 lay within 1 to 10 nM.

As for `CC[C@@H]1CN(Cc2cc([C@H](CC(=O)Nc3cccnc3)c3ccc4c(nnn4CC)c3C)ccc2C)S(=O)(=O)c2cccnc2O1` [Example 1, (S)-3-(3-(((R)-4-Ethyl-1,1-dioxido-3,4-dihydro-2H-pyrido[2,3-b][1,4,5]oxathiazepin-2-yl)methyl)-4-methylphenyl)-3-(1-ethyl-4-methyl-1H-benzo[d][1,2,3]triazol-5-yl)-N-(pyridin-3-yl)propanamide], the 50% effective concentration (EC50) lay within 10 to 100 nM. Consider `CC[C@@H]1CN(Cc2cc([C@H](CC(=O)Nc3ccc(C(F)(F)F)nc3)c3ccc4c(nnn4CC)c3C)ccc2C)S(=O)(=O)c2cccnc2O1` [Example 14, (S)-3-(3-(((R)-4-Ethyl-1,1-dioxido-3,4-dihydro-2H-pyrido[2,3-b][1,4,5]oxathiazepin-2-yl)methyl)-4-methylphenyl)-3-(1-ethyl-4-methyl-1H-benzo[d][1,2,3]triazol-5-yl)-N-(6-(trifluoromethyl)pyridin-3-yl)propanamide], for which the EC50 was in the range of 100 to 1000 nM. As for `CC[C@@H]1CN(Cc2cc([C@H](CC(=O)NCCNC)c3ccc4c(nnn4CC)c3C)ccc2C)S(=O)(=O)c2cccnc2O1` [Example 36, (S)-3-(3-(((R)-4-Ethyl-1,1-dioxido-3,4-dihydro-2H-pyrido[2,3-b][1,4,5]oxathiazepin-2-yl)methyl)-4-methylphenyl)-3-(1-ethyl-4-methyl-1H-benzo[d]-[1,2,3]triazol-5-yl)-N-(2-(methylamino)ethyl)propanamide], the EC50 was 100 to 1000 nM. Take `CC[C@@H]1CN(Cc2cc([C@@H](c3ccc4c(nnn4CC)c3C)C(C)(C)C(=O)Nc3cnc(OCCOC(C)(C)C)nc3)ccc2C)S(=O)(=O)c2ccccc2O1` [Example 192, (S)-N-(2-(2-(tert-Butoxy)ethoxy)pyrimidin-5-yl)-3-(3-(((R)-4-ethyl-1,1-dioxido-3,4-dihydro-2H-benzo[b][1,4,5]oxathiazepin-2-yl)methyl)-4-methylphenyl)-3-(1-ethyl-4-methyl-1H-benzo[d][1,2,3]triazol-5-yl)-2,2-dimethylpropanamide]: the EC50 was in the range of 10 to 100 nM.

Consider `CC[C@H]1Cc2ccccc2S(=O)(=O)N(Cc2cc([C@@H](c3ccc4c(nnn4CC)c3C)C(C)(C)C(=O)Nc3nnnn3CC(C)=O)ccc2C)C1` [Example 73, (S)-3-(3-(((S)-4-Ethyl-1,1-dioxido-4,5-dihydrobenzo[f][1,2]thiazepin-2(3H)-yl)methyl)-4-methylphenyl)-3-(1-ethyl-4-methyl-1H-benzo[d][1,2,3]triazol-5-yl)-2,2-dimethyl-N-(1-(2-oxopropyl)-1H-tetrazol-5-yl)propanamide], for which the EC50 fell in the range of 10 to 100 nM. As to `CC[C@@H]1CN(Cc2cc([C@@H](c3ccc4c(nnn4CC)c3C)C(C)(C)C(=O)Nc3cncnc3)ccc2C)S(=O)(=O)c2cc(Br)ccc2O1` [Example 98, (S)-3-(3-(((R)-8-Bromo-4-ethyl-1,1-dioxido-3,4-dihydro-2H-benzo[b][1,4,5]oxathi-azepin-2-yl)methyl)-4-methylphenyl)-3-(1-ethyl-4-methyl-1H-benzo[d][1,2,3]triazol-5-yl)-2,2-dimethyl-N-(pyrimidin-5-yl)propanamide], the concentration giving a half-maximal response (EC50) is 1 to 10 nM. With `CC[C@@H]1CN(Cc2cc([C@@H](c3ccc4c(nnn4CC)c3C)C(C)(C)C(=O)N[C@@H]3CCOC3)ccc2C)S(=O)(=O)c2cccnc2O1` [Example 114, (S)-3-(3-(((R)-4-Ethyl-1,1-dioxido-3,4-dihydro-2H-pyrido[2,3-b][1,4,5]oxathiazepin-2-yl)methyl)-4-methylphenyl)-3-(1-ethyl-4-methyl-1H-benzo[d][1,2,3]triazol-5-yl)-2,2-dimethyl-N-((R)-tetrahydrofuran-3-yl)propanamide], the half-maximal effective concentration (EC50) was in the range of 10 to 100 nM.
